Results from PubChem BioAssay AID256 (DTP/NCI, 2004).
Inconclusive results and toxic doses are left out. Rule for the calls: active = survival T/C of 150% or more; inactive = T/C below 125% in these data.

Tested on: CD2F1 mice, L1210 leukemia ip, survival T/C
Test: NCI In Vivo Anticancer Drug Screen. Data for tumor model L1210 Leukemia (intraperitoneal) in CD2F1 (CDF1) mice
Details: higher = longer survival
Summary of the method: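 Read-out first: treated-group measurement over vehicle-control measurement, expressed as a ratio. Animals bore a transplanted tumor line and were dosed with compound or vehicle.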

[1] = endpoint: mean survival time, dose: 50.0 mg/kg/injection, schedule: Q01DX009 (ip), vehicle: saline with Tween-80
[2] = endpoint: mean survival time, dose: 100.0 mg/kg/injection, schedule: Q01DX009 (ip), vehicle: saline with Tween-80
[3] = endpoint: mean survival time, dose: 200.0 mg/kg/injection, schedule: Q01DX009 (ip), vehicle: saline with Tween-80
[4] = endpoint: mean survival time, dose: 100.0 mg/kg/injection, schedule: Q04DX003 (ip), vehicle: saline with Tween-80
[5] = endpoint: mean survival time, dose: 200.0 mg/kg/injection, schedule: Q04DX003 (ip), vehicle: saline with Tween-80
[6] = endpoint: mean survival time, dose: 400.0 mg/kg/injection, schedule: Q04DX003 (ip), vehicle: saline with Tween-80
[7] = endpoint: mean survival time, dose: 50.0 mg/kg/injection, schedule: Q01DX009 (ip), vehicle: Klucel (hydroxypropylcellulose) (HPC)
[8] = endpoint: mean survival time, dose: 100.0 mg/kg/injection, schedule: Q01DX009 (ip), vehicle: Klucel (hydroxypropylcellulose) (HPC)
[9] = endpoint: mean survival time, dose: 50.0 mg/kg/injection, schedule: Q01DX009 (ip), vehicle: saline
[10] = endpoint: mean survival time, dose: 100.0 mg/kg/injection, schedule: Q01DX009 (ip), vehicle: saline

Measured: T/C

O=[N+]([O-])c1cc(S(=O)(=O)O)cc(S(=O)(=O)O)c1O
inactive: endpoint: mean survival time, dose: 100.0 mg/kg/injection, schedule: Q04DX002 (ip), vehicle: saline 100 % of control | endpoint: mean survival time, dose: 200.0 mg/kg/injection, schedule: Q04DX002 (ip), vehicle: saline 107 % of control | endpoint: mean survival time, dose: 400.0 mg/kg/injection, schedule: Q04DX002 (ip), vehicle: saline 103 % of control

CCCC/C=C\C1CCCCC1C (stereo not drawn)
inactive: [1] 87 % of control | [2] 96 % of control | [3] 104 % of control

CCOC(=O)Nc1cc(Cl)ccc1O
inactive: [2] 103 % of control | [4] 92 % of control | [3] 104 % of control | [5] 103 % of control | [6] 88 % of control

COc1cc(/C=N/NC(=O)CN(C)C)cc(OC)c1N(CCCl)CCCl
inactive: [7] 122 % of control | [8] 113 % of control

Nc1cccc(CCCCc2cccc(S(=O)(=O)F)c2)c1
inactive: [1] 97 % of control | [2] 95 % of control | [4] 100 % of control | [3] 97 % of control | [5] 95 % of control

CC/S(=N\S(=O)(=O)c1ccc(C)cc1)c1ccccc1 (stereo not drawn)
inactive: [4] 104 % of control | [5] 108 % of control | [6] 98 % of control

Cc1c2c(c(O)c3c(O)cccc13)C(=O)C1(O)C(O)=C(C(N)=O)C(=O)CC1C2 (stereo not drawn)
inactive: endpoint: mean survival time, dose: 75.0 mg/kg/injection, schedule: Q01DX001 (ip), vehicle: other 92 % of control | endpoint: mean survival time, dose: 150.0 mg/kg/injection, schedule: Q01DX001 (ip), vehicle: other 94 % of control | endpoint: mean survival time, dose: 300.0 mg/kg/injection, schedule: Q01DX001 (ip), vehicle: other 102 % of control

CC(C)[C@](O)(C(=O)OCC1=CC[N+]2([O-])CC[C@@H](O)[C@@H]12)[C@H](C)O (stereo partly drawn)
inactive: endpoint: mean survival time, dose: 50.0 mg/kg/injection, schedule: Q01DX009 (ip), vehicle: water 116 % of control | endpoint: mean survival time, dose: 750.0 mg/kg/injection, schedule: Q01DX001 (ip), vehicle: saline 96 % of control | endpoint: mean survival time, dose: 1000.0 mg/kg/injection, schedule: Q01DX001 (ip), vehicle: saline 101 % of control | endpoint: mean survival time, dose: 1250.0 mg/kg/injection, schedule: Q01DX001 (ip), vehicle: saline 97 % of control | endpoint: mean survival time, dose: 1500.0 mg/kg/injection, schedule: Q01DX001 (ip), vehicle: saline 105 % of control | endpoint: mean survival time, dose: 2000.0 mg/kg/injection, schedule: Q01DX001 (ip), vehicle: saline 117 % of control | endpoint: mean survival time, dose: 3000.0 mg/kg/injection, schedule: Q01DX001 (ip), vehicle: saline 115 % of control

O=C(/C=C/c1ccc(Cl)c(Cl)c1)/C=C/c1ccc(Cl)c(Cl)c1
inactive: [7] 98 % of control | [8] 94 % of control | endpoint: mean survival time, dose: 200.0 mg/kg/injection, schedule: Q01DX009 (ip), vehicle: Klucel (hydroxypropylcellulose) (HPC) 90 % of control

c1nc(N2CC2)c2cnn(C3CCCCO3)c2n1 (stereo not drawn)
inactive: endpoint: mean survival time, dose: 25.0 mg/kg/injection, schedule: Q04DX003 (ip), vehicle: saline 96 % of control | endpoint: mean survival time, dose: 50.0 mg/kg/injection, schedule: Q04DX003 (ip), vehicle: saline 103 % of control | endpoint: mean survival time, dose: 100.0 mg/kg/injection, schedule: Q04DX003 (ip), vehicle: saline 100 % of control

CC(C)(O)C(Cl)(Cl)Cl
inactive: [9] 97 % of control | [10] 95 % of control | endpoint: mean survival time, dose: 200.0 mg/kg/injection, schedule: Q01DX009 (ip), vehicle: saline 107 % of control

CCOP(=O)(NCCOC)OCC
inactive: endpoint: mean survival time, dose: 25.0 mg/kg/injection, schedule: Q01DX009 (ip), vehicle: saline 94 % of control | endpoint: mean survival time, dose: 25.0 mg/kg/injection, schedule: Q04DX003 (ip), vehicle: saline with Tween-80 101 % of control | [9] 91 % of control | endpoint: mean survival time, dose: 50.0 mg/kg/injection, schedule: Q04DX003 (ip), vehicle: saline with Tween-80 94 % of control | [10] 88 % of control | [4] 101 % of control

NC(C(=O)[O-])C(=O)[O-].NC1CCCCC1N.[Pt+4]
inactive: endpoint: median survival time, dose: 1.0 mg/kg/injection, schedule: Q04DX003 (ip), vehicle: water 109 % of control | endpoint: median survival time, dose: 2.0 mg/kg/injection, schedule: Q04DX003 (ip), vehicle: water 124 % of control

CC1(C)CSC(=S)N1
inactive: endpoint: mean survival time, dose: 2.5 mg/kg/injection, schedule: Q01DX009 (ip), vehicle: saline with Tween-80 98 % of control | endpoint: mean survival time, dose: 5.0 mg/kg/injection, schedule: Q01DX009 (ip), vehicle: saline with Tween-80 95 % of control | endpoint: mean survival time, dose: 5.0 mg/kg/injection, schedule: Q04DX003 (ip), vehicle: saline with Tween-80 103 % of control | endpoint: mean survival time, dose: 10.0 mg/kg/injection, schedule: Q01DX009 (ip), vehicle: saline with Tween-80 107 % of control | endpoint: mean survival time, dose: 10.0 mg/kg/injection, schedule: Q04DX003 (ip), vehicle: saline with Tween-80 92 % of control
